In patent US9593122B2, “Substituted pyrazolylpyrazole derivative and use of same as herbicide” (KYOYU AGRI CO., LTD., priority 2013, dated 2017):

Key:
Format in all cases: in vivo
Digitaria ciliaris [1] = experiment: Farming soil treatment test; settings: soil surface spray prior to weed growth, 30 days
Protocol: (§1) Field soil was filled into a 1/6000 are pot followed by seeding with Digitaria ciliaris, Chenopodium album and Amaranthus retroflexus and covering with soil.
(§2) Wettable powder of compounds of formula (I) shown in Table 1 prepared in compliance with the preparation examples were diluted with water to the prescribed amount of chemical and uniformly sprayed onto each soil surface layer using 10 liters of sprayed water per are prior to weed growth following seeding.
(§3) After treating for 30 days in a glass greenhouse at an average atmospheric temperature of 30° C., the herbicidal efficacy thereof was investigated.
(§4) Evaluation of herbicidal efficacy is carried out in the same manner as the above-mentioned Test Example 1.

Amaranthus retroflexus [2] = experiment: Farming soil treatment test; settings: soil surface spray prior to weed growth, 30 days
Protocol: as §1, §2, §3, §4

Chenopodium album [3] = experiment: Farming soil treatment test; settings: soil surface spray prior to weed growth, 30 days
Protocol: as §1, §2, §3, §4

Digitaria ciliaris [4] = experiment: Weed foliar treatment test; settings: foliar spray at 1.0 to 2.0 leaf stage of Digitaria ciliaris, 3 weeks
Protocol: (§5) Soil was filled into a 1/6000 are pot followed by seeding with Digitaria ciliaris, Chenopodium album and Amaranthus retroflexus, covering with soil, and cultivating in a glass greenhouse at an average atmospheric temperature of 25° C.
(§6) Wettable powder of Target Compound (I) shown in Table 1 prepared in compliance with the preparation examples were diluted with water to the prescribed amount of chemical and uniformly sprayed onto the weeds using 15 liters of sprayed water per are when Digitaria ciliaris had grown to the 1.0 to 2.0 leaf stage.
(§7) After treating for 3 weeks in a glass greenhouse at an average atmospheric temperature of 25° C., the herbicidal efficacy thereof was investigated.
(§8) Evaluation of herbicidal efficacy was carried out in the same manner as the above-mentioned Test Example 1.

Amaranthus retroflexus [5] = experiment: Weed foliar treatment test; settings: foliar spray, 3 weeks
Protocol: as §5, §6, §7, §8

Chenopodium album [6] = experiment: Weed foliar treatment test; settings: foliar spray, 3 weeks
Protocol: as §5, §6, §7, §8

Scirpus juncoides = experiment: Paddy herbicidal activity test; settings: irrigated paddy pot, 30 days
Summary of the method: (§9)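 Flooded paddy-soil pots (3 cm water) were sown with Echinochloa, Monochoria and Scirpus, and rice at the 2.0-leaf stage was transplanted. Diluted wettable powder was dripped in per are at weed 3.5-leaf stage. After 30 days in a greenhouse (~30 °C), growth inhibition versus untreated plants was scored on an 11-level scale.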

Echinochloa crus-galli = experiment: Paddy herbicidal activity test; settings: irrigated paddy pot, treated at 3.5 leaf stage of Echinochloa crus-galli, 30 days
Summary of the method: as §9

Monochoria vaginalis = experiment: Paddy herbicidal activity test; settings: irrigated paddy pot, 30 days
Summary of the method: as §9

Rice plants = experiment: Paddy herbicidal activity test, phytotoxicity to transplanted rice; settings: rice transplanted at 2.0 leaf stage, 30 days
Protocol: Rice paddy soil was filled into a 1/10000 are pot followed by the addition of suitable amounts of water and chemical fertilizer, kneading, seeding with Echinochloa crus-galli, Monochoria vaginalis and Scirpus juncoides and maintaining in an irrigated state at a water depth of 3 cm.
Wettable powder of Target Compound (I) shown in Table 1 prepared in compliance with the preparation examples were diluted with a suitable amount of water, rice plants in the 2.0 leaf stage were transplanted during 3.5 leaf stage of Echinochloa crus-galli, and treated by dropping in chemical in the prescribed amount per are using a pipette.
as §3
Evaluation of herbicidal efficacy was carried out by comparing growth inhibition rate (%) with an untreated group, while evaluation of phytotoxicity was carried out by comparing growth inhibition rate (%) with the state of a complete eradication group, and were evaluated at 11 levels indicated below.

C=C(Cl)CN(C(=O)C(F)(F)F)c1c(C#N)cnn1-c1nn2c(c1Cl)CCCC2 [Compound 3, (N-1-(3-chloro-4,5,6,7-tetrahydropyrazolo[1,5-a]pyridin-2-yl)-4-cyanopyrazol-5-yl)-N-(2-chloroprop-2-enyl)-2,2,2-trifluoroacetamide]
Digitaria ciliaris herbicidal efficacy (growth inhibition level) (Digitaria ciliaris [1]; 5g a.i./10a): 10 (10: 100%) | Digitaria ciliaris herbicidal efficacy (growth inhibition level) (Digitaria ciliaris [1]; 10g a.i./10a): 10 (10: 100%) | Amaranthus retroflexus herbicidal efficacy (growth inhibition level) (Amaranthus retroflexus [2]; 5g a.i./10a): 10 (10: 100%) | Amaranthus retroflexus herbicidal efficacy (growth inhibition level) (Amaranthus retroflexus [2]; 10g a.i./10a): 10 (10: 100%) | Chenopodium album herbicidal efficacy (growth inhibition level) (Chenopodium album [3]; 5g a.i./10a): 10 (10: 100%) | Chenopodium album herbicidal efficacy (growth inhibition level) (Chenopodium album [3]; 10g a.i./10a): 10 (10: 100%) | Digitaria ciliaris herbicidal efficacy (growth inhibition level) (Digitaria ciliaris [4]; 5g a.i./10a): 10 (10: 100%) | Digitaria ciliaris herbicidal efficacy (growth inhibition level) (Digitaria ciliaris [4]; 10g a.i./10a): 10 (10: 100%) | Amaranthus retroflexus herbicidal efficacy (growth inhibition level) (Amaranthus retroflexus [5]; 5g a.i./10a): 10 (10: 100%) | Amaranthus retroflexus herbicidal efficacy (growth inhibition level) (Amaranthus retroflexus [5]; 10g a.i./10a): 10 (10: 100%) | Chenopodium album herbicidal efficacy (growth inhibition level) (Chenopodium album [6]; 5g a.i./10a): 10 (10: 100%) | Chenopodium album herbicidal efficacy (growth inhibition level) (Chenopodium album [6]; 10g a.i./10a): 10 (10: 100%) | Scirpus juncoides herbicidal efficacy (growth inhibition level) (Scirpus juncoides; 1g a.i./10a): 7 (7: 70% to less than 80%) | Scirpus juncoides herbicidal efficacy (growth inhibition level) (Scirpus juncoides; 5g a.i./10a): 8 (8: 80% to less than 90%) | Echinochloa crus-galli herbicidal efficacy (growth inhibition level) (Echinochloa crus-galli; 1g a.i./10a): 9 (9: 90% to less than 100%) | Echinochloa crus-galli herbicidal efficacy (growth inhibition level) (Echinochloa crus-galli; 5g a.i./10a): 10 (10: 100%) | Monochoria vaginalis herbicidal efficacy (growth inhibition level) (Monochoria vaginalis; 1g a.i./10a): 9 (9: 90% to less than 100%) | Monochoria vaginalis herbicidal efficacy (growth inhibition level) (Monochoria vaginalis; 5g a.i./10a): 9 (9: 90% to less than 100%) | Rice plants phytotoxicity (growth inhibition level) (Rice plants; 1g a.i./10a): 0 (0 (exponent): 0% to less than 10% (growth inhibition rate)) | Rice plants phytotoxicity (growth inhibition level) (Rice plants; 5g a.i./10a): 0 (0 (exponent): 0% to less than 10% (growth inhibition rate))

O=[N+]([O-])c1cnn(-c2nn3c(c2Cl)CCCC3)c1NC/C=C\Cl [Compound 32]
Digitaria ciliaris herbicidal efficacy (growth inhibition level) (Digitaria ciliaris [1]; 5g a.i./10a): 10 (10: 100%) | Digitaria ciliaris herbicidal efficacy (growth inhibition level) (Digitaria ciliaris [1]; 10g a.i./10a): 10 (10: 100%) | Amaranthus retroflexus herbicidal efficacy (growth inhibition level) (Amaranthus retroflexus [2]; 5g a.i./10a): 10 (10: 100%) | Amaranthus retroflexus herbicidal efficacy (growth inhibition level) (Amaranthus retroflexus [2]; 10g a.i./10a): 10 (10: 100%) | Chenopodium album herbicidal efficacy (growth inhibition level) (Chenopodium album [3]; 5g a.i./10a): 10 (10: 100%) | Digitaria ciliaris herbicidal efficacy (growth inhibition level) (Digitaria ciliaris [4]; 5g a.i./10a): 10 (10: 100%) | Digitaria ciliaris herbicidal efficacy (growth inhibition level) (Digitaria ciliaris [4]; 10g a.i./10a): 10 (10: 100%) | Amaranthus retroflexus herbicidal efficacy (growth inhibition level) (Amaranthus retroflexus [5]; 5g a.i./10a): 10 (10: 100%) | Amaranthus retroflexus herbicidal efficacy (growth inhibition level) (Amaranthus retroflexus [5]; 10g a.i./10a): 10 (10: 100%) | Chenopodium album herbicidal efficacy (growth inhibition level) (Chenopodium album [6]; 5g a.i./10a): 10 (10: 100%) | Chenopodium album herbicidal efficacy (growth inhibition level) (Chenopodium album [6]; 10g a.i./10a): 10 (10: 100%) | Scirpus juncoides herbicidal efficacy (growth inhibition level) (Scirpus juncoides; 1g a.i./10a): 8 (8: 80% to less than 90%) | Scirpus juncoides herbicidal efficacy (growth inhibition level) (Scirpus juncoides; 5g a.i./10a): 10 (10: 100%) | Echinochloa crus-galli herbicidal efficacy (growth inhibition level) (Echinochloa crus-galli; 1g a.i./10a): 8 (8: 80% to less than 90%) | Echinochloa crus-galli herbicidal efficacy (growth inhibition level) (Echinochloa crus-galli; 5g a.i./10a): 9 (9: 90% to less than 100%) | Monochoria vaginalis herbicidal efficacy (growth inhibition level) (Monochoria vaginalis; 1g a.i./10a): 9 (9: 90% to less than 100%) | Monochoria vaginalis herbicidal efficacy (growth inhibition level) (Monochoria vaginalis; 5g a.i./10a): 10 (10: 100%)

C=CCNc1c(C#N)cnn1-c1nn2c(c1Cl)CCCC2 [Control agent 4.59, reference compound]
Digitaria ciliaris herbicidal efficacy (growth inhibition level) (Digitaria ciliaris [1]; 5g a.i./10a): 5 (5: 50% to less than 60%) | Digitaria ciliaris herbicidal efficacy (growth inhibition level) (Digitaria ciliaris [1]; 10g a.i./10a): 6 (6: 60% to less than 70%) | Amaranthus retroflexus herbicidal efficacy (growth inhibition level) (Amaranthus retroflexus [2]; 5g a.i./10a): 5 (5: 50% to less than 60%) | Amaranthus retroflexus herbicidal efficacy (growth inhibition level) (Amaranthus retroflexus [2]; 10g a.i./10a): 6 (6: 60% to less than 70%) | Chenopodium album herbicidal efficacy (growth inhibition level) (Chenopodium album [3]; 5g a.i./10a): 5 (5: 50% to less than 60%) | Chenopodium album herbicidal efficacy (growth inhibition level) (Chenopodium album [3]; 10g a.i./10a): 6 (6: 60% to less than 70%) | Digitaria ciliaris herbicidal efficacy (growth inhibition level) (Digitaria ciliaris [4]; 5g a.i./10a): 4 (4: 40% to less than 50%) | Digitaria ciliaris herbicidal efficacy (growth inhibition level) (Digitaria ciliaris [4]; 10g a.i./10a): 6 (6: 60% to less than 70%) | Amaranthus retroflexus herbicidal efficacy (growth inhibition level) (Amaranthus retroflexus [5]; 5g a.i./10a): 6 (6: 60% to less than 70%) | Amaranthus retroflexus herbicidal efficacy (growth inhibition level) (Amaranthus retroflexus [5]; 10g a.i./10a): 7 (7: 70% to less than 80%) | Chenopodium album herbicidal efficacy (growth inhibition level) (Chenopodium album [6]; 5g a.i./10a): 6 (6: 60% to less than 70%) | Chenopodium album herbicidal efficacy (growth inhibition level) (Chenopodium album [6]; 10g a.i./10a): 7 (7: 70% to less than 80%) | Scirpus juncoides herbicidal efficacy (growth inhibition level) (Scirpus juncoides; 1g a.i./10a): 2 (2: 20% to less than 30%) | Scirpus juncoides herbicidal efficacy (growth inhibition level) (Scirpus juncoides; 5g a.i./10a): 4 (4: 40% to less than 50%) | Echinochloa crus-galli herbicidal efficacy (growth inhibition level) (Echinochloa crus-galli; 1g a.i./10a): 2 (2: 20% to less than 30%) | Echinochloa crus-galli herbicidal efficacy (growth inhibition level) (Echinochloa crus-galli; 5g a.i./10a): 5 (5: 50% to less than 60%) | Monochoria vaginalis herbicidal efficacy (growth inhibition level) (Monochoria vaginalis; 1g a.i./10a): 2 (2: 20% to less than 30%) | Monochoria vaginalis herbicidal efficacy (growth inhibition level) (Monochoria vaginalis; 5g a.i./10a): 4 (4: 40% to less than 50%) | Rice plants phytotoxicity (growth inhibition level) (Rice plants; 1g a.i./10a): 1 (1: 10% to less than 20%) | Rice plants phytotoxicity (growth inhibition level) (Rice plants; 5g a.i./10a): 2 (2: 20% to less than 30%)

C=CCN(CC)c1c(C#N)cnn1-c1nn2c(c1Cl)CCCC2 [Control agent 4.75, reference compound]
Digitaria ciliaris herbicidal efficacy (growth inhibition level) (Digitaria ciliaris [1]; 5g a.i./10a): 3 (3: 30% to less than 40%) | Digitaria ciliaris herbicidal efficacy (growth inhibition level) (Digitaria ciliaris [1]; 10g a.i./10a): 4 (4: 40% to less than 50%) | Amaranthus retroflexus herbicidal efficacy (growth inhibition level) (Amaranthus retroflexus [2]; 5g a.i./10a): 6 (6: 60% to less than 70%) | Amaranthus retroflexus herbicidal efficacy (growth inhibition level) (Amaranthus retroflexus [2]; 10g a.i./10a): 6 (6: 60% to less than 70%) | Chenopodium album herbicidal efficacy (growth inhibition level) (Chenopodium album [3]; 5g a.i./10a): 5 (5: 50% to less than 60%) | Chenopodium album herbicidal efficacy (growth inhibition level) (Chenopodium album [3]; 10g a.i./10a): 6 (6: 60% to less than 70%) | Digitaria ciliaris herbicidal efficacy (growth inhibition level) (Digitaria ciliaris [4]; 5g a.i./10a): 4 (4: 40% to less than 50%) | Digitaria ciliaris herbicidal efficacy (growth inhibition level) (Digitaria ciliaris [4]; 10g a.i./10a): 5 (5: 50% to less than 60%) | Amaranthus retroflexus herbicidal efficacy (growth inhibition level) (Amaranthus retroflexus [5]; 5g a.i./10a): 5 (5: 50% to less than 60%) | Amaranthus retroflexus herbicidal efficacy (growth inhibition level) (Amaranthus retroflexus [5]; 10g a.i./10a): 7 (7: 70% to less than 80%) | Chenopodium album herbicidal efficacy (growth inhibition level) (Chenopodium album [6]; 5g a.i./10a): 6 (6: 60% to less than 70%) | Chenopodium album herbicidal efficacy (growth inhibition level) (Chenopodium album [6]; 10g a.i./10a): 7 (7: 70% to less than 80%) | Scirpus juncoides herbicidal efficacy (growth inhibition level) (Scirpus juncoides; 1g a.i./10a): 2 (2: 20% to less than 30%) | Scirpus juncoides herbicidal efficacy (growth inhibition level) (Scirpus juncoides; 5g a.i./10a): 2 (2: 20% to less than 30%) | Echinochloa crus-galli herbicidal efficacy (growth inhibition level) (Echinochloa crus-galli; 1g a.i./10a): 3 (3: 30% to less than 40%) | Echinochloa crus-galli herbicidal efficacy (growth inhibition level) (Echinochloa crus-galli; 5g a.i./10a): 4 (4: 40% to less than 50%) | Monochoria vaginalis herbicidal efficacy (growth inhibition level) (Monochoria vaginalis; 1g a.i./10a): 4 (4: 40% to less than 50%) | Monochoria vaginalis herbicidal efficacy (growth inhibition level) (Monochoria vaginalis; 5g a.i./10a): 5 (5: 50% to less than 60%) | Rice plants phytotoxicity (growth inhibition level) (Rice plants; 1g a.i./10a): 0 (0 (exponent): 0% to less than 10% (growth inhibition rate)) | Rice plants phytotoxicity (growth inhibition level) (Rice plants; 5g a.i./10a): 1 (1: 10% to less than 20%)
